Measurements taken from patent publication US10183015B2, “Heterocyclic compounds and methods of use” (Medivation Technologies LLC, priority 2015, dated 2019).
Where “and” joins values, the source holds several entries; their conditions need not be identical. Equal entries are not always repeated.

Tests used:
Format in all cases: in vivo
[1] = system: FAS; assay: Short-term Paigen-diet NASH mouse model: hepatic FAS gene expression (RT-qPCR); settings: FAS relative expression to vehicle group, 21 days
Experimental: (§1) To investigate whether Compound #37 prevents the development of pathology associated with NASH and steatosis in an acute exploratory disease model, a study was conducted using a diet-induced acute liver steatosis model in mice. As described below, in this study, C57BL/6J mice were initiated on the Paigen diet and simultaneously treated with Compound #37 (5, 20, and 40 mg/kg/day) or vehicle control (20% HPβCD 10 mL/kg/day) by oral gavage for 21 days.
(§2) After acclimation, 8-week old male C57Bl/6J mice (Charles River) weighing about 25 g were randomized in 4 groups according their body weight and treated once daily around noon by oral gavage with vehicle, or Compound #37 at various for 21 days as follows: Group 1: vehicle-20% (2-hydroxypropyl)-β-cyclodextrin (HP-β-CD) (n=10); Group 2: Compound #37, 5 mg/kg (n=10) Group 3: Compound #37, 20 mg/kg (n=10) Group 4: Compound #37, 40 mg/kg (n=10). During the treatment period, body weight and food intake (measured over 24h) were measured 3 times per week and once a week, respectively. During the acclimation, all mice were fed a standard diet (Special Diets Services RM1 (E), product no. 801492) and tap water ad libitum. After the acclimation period, mice were fed until the end of the experiment with a 60% high fat Paigen diet (60 kcal % fat, 1.25% cholesterol, and 0.5% cholate; D11061901, Research Diet) and tap water ad libitum.
(§3) Gene expression analysis. Hepatic expression levels of genes involved in lipid metabolism (FAS, SREBP1, ACC1, SCD1), cholesterol metabolism (HMG-CoAR, LDLR), SREBP proteolysis (SCAP, INSIG1), ER stress (PERK), oxidative stress (NRF2), inflammation (MCP-1), and fibrosis (collagen 1α1) were quantified by RTqPCR. Expression level was normalized to 18S gene expression and relative expression to vehicle group was calculated with the […] method.

[2] = system: INSIG1; assay: Short-term Paigen-diet NASH mouse model: hepatic INSIG1 gene expression (RT-qPCR); settings: liver, 21 days; for DDct: INSIG1 Dct relative to vehicle mean; for Dct: INSIG1 minus 18S; for 2DDct: INSIG1 relative expression to vehicle group, normalized to 18S; for INSIG1: raw RT-qPCR value
Experimental: as §1, §2, §3

[3] = system: Coll1a1; assay: Short-term Paigen-diet NASH mouse model: hepatic Coll1a1 (collagen 1α1) gene expression (RT-qPCR); parameters: key to Fibrosis gene expression Coll1a1: Dct: Ct of gene minus Ct of 18S reference; key to Fibrosis gene expression Coll1a1: 2DDct: expression relative to vehicle group, 2^-ΔΔCt method, 18S-normalized; settings: 21 days
Experimental: as §1, §2, §3

[4] = system: diet-induced NASH obese insulin resistant mice; assay: DIN mouse model: liver oil red O staining (% labeling)
Experimental: Male C57Bl/6J mice (8 weeks old) were housed in enriched ventilated cages (31×12.5×12.7 cm) throughout the experimental phase. Animals' cages litters were changed at least once a week. Animal were housed 5 per cage on inverted 12-hour light cycle (at 09:00 am lights off), 22±2° C. and 55±10% relative humidity. The acclimation period was 20 days. During the acclimation period, all mice were fed a standard diet (RM1 (E) 801492, SDS) and tap water ad libitum. After the acclimation period, mice were fed with the DIN diet (60% fat, cholesterol enriched) and fructose-enriched tap water ad libitum until the end of the experiment.
At 6 weeks of diet, mice were 4-hour fasted (09:00 am to 1:00 pm) and blood (150 μl/EDTA) was collected at 01:00 pm by retro-orbital bleeding under isoflurane anesthesia. Mice were then allocated in 2 homogenous groups (n=12/group) according to their plasma levels of ALT (average levels: 685U/L), AST (average levels: 627U/L) and HOMA-IR index (average value: 4.7), into 2 homogenous groups (see values at day 0 in Tables 15A and 15B ALT/AST and Tables 16A and 16B for HOMA-IR). Mice were then treated once daily by oral gavage with vehicle (Group 1) or Compound #37 at 20 mg/kg (Group 2) for 70 days.
Slides having a single hepatic lobe section stained with H&E and […] were digitized using a Nanozoomer from Hamamatsu. Sections were evaluated with knowledge of groups. […]

[5] = Compound #37 5 mg/kg, group mean, n=10
[6] = Compound #37 5 mg/kg, individual animals, 5 mg/kg
[7] = Compound #37 20 mg/kg, group mean, n=6
[8] = Compound #37 20 mg/kg, individual animals, 20 mg/kg

SMILES: CC(C)Cc1cc(-c2nc(-c3ccc(NS(=O)(=O)C(F)(F)F)cc3Cl)cs2)ccn1 [Compound 37, N-(3-chloro-4-(2-(2-isobutylpyridin-4-yl)thiazol-4-yl)phenyl)-1,1,1-trifluoromethanesulfonamide]
- 2DDct ([1]; 5 mg/kg, group mean): 1.12
- 2DDct ([1]; 5 mg/kg, individual animals, 5 mg/kg): 2.2 and 1.54 and 1.55 and 2.34 and 0.68 and 0.39 and 0.91 and 0.65 and 0.33 and 0.59
- 2DDct ([1]; 20 mg/kg, group mean): 1.18
- 2DDct ([1]; 20 mg/kg, individual animals, 20 mg/kg): 1.48 and 0.56 and 0.63 and 1.65 and 0.9 and 1.88
- DDct [2, 5]: 0.28
- DDct [2, 6]: −0.58 and 0.21 and 0.48 and −0.03 and 0.34 and 1.45 and 0.09 and 0.52 and 0.32 and 0.05
- DDct [2, 7]: 0.15
- DDct [2, 8]: 0.5 and 0.75 and 0.51 and −0.67 and 0.62 and −0.76
- Dct [2, 5]: 12
- Dct [2, 6]: 11.1 and 11.89 and 12.16 and 11.65 and 12.02 and 13.13 and 11.77 and 12.2 and 12 and 11.73
- Dct [2, 7]: 11.8
- Dct [2, 8]: 12.18 and 12.43 and 12.19 and 11.01 and 12.3 and 10.92
- 2DDct [2, 5]: 0.87
- 2DDct [2, 6]: 1.5 and 0.87 and 0.72 and 1.02 and 0.79 and 0.37 and 0.94 and 0.7 and 0.8 and 0.97
- 2DDct [2, 7]: 0.99
- 2DDct [2, 8]: 0.71 and 0.6 and 0.7 and 1.6 and 0.65 and 1.7
- INSIG1 [2, 5]: 24.2
- INSIG1 [2, 6]: 24.56 and 25 (2×) and 23.77 and 24.05 and 26.48 and 23.37 and 23.99 and 23.14 and 22.85
- INSIG1 [2, 7]: 24
- INSIG1 [2, 8]: 25.09 and 24.72 and 24.39 and 24.04 and 23.79 and 22.18
- Fibrosis gene expression Coll1a1: 2DDct ([3]; 5 mg/kg, group mean, n 10): 0.88
- Fibrosis gene expression Coll1a1: Coll1a1 ([3]; 5 mg/kg, group mean, n 10): 27.2
- Fibrosis gene expression Coll1a1: DDct ([3]; 5 mg/kg, group mean, n 10): 0.84
- Fibrosis gene expression Coll1a1: Dct ([3]; 5 mg/kg, group mean, n 10): 15
- Fibrosis gene expression Coll1a1: 2DDct ([3]; 5 mg/kg, individual animals): 0.86 and 0.27 and 0.96 and 0.69 and 0.15 and 0.05 and 1.75 and 2.26 and 1.2 and 0.57
- Fibrosis gene expression Coll1a1: Coll1a1 ([3]; 5 mg/kg, individual animals): 27.81 and 29.15 and 25.8 and 28.03 and 28.92 and 31.82 and 24.93 and 24.75 and 25.01 and 26.07
- Fibrosis gene expression Coll1a1: DDct ([3]; 5 mg/kg, individual animals): 0.21 and 1.9 and 0.05 and 0.54 and 2.75 and 4.33 and −0.81 and −1.18 and −0.27 and 0.81
- Fibrosis gene expression Coll1a1: Dct ([3]; 5 mg/kg, individual animals): 14.4 and 16.04 and 14.19 and 14.68 and 16.89 and 18.47 and 13.33 and 12.96 and 13.87 and 14.95
- Fibrosis gene expression Coll1a1: 2DDct ([3]; 20 mg/kg, group mean, n 5): 0.68
- Fibrosis gene expression Coll1a1: Coll1a1 ([3]; 20 mg/kg, group mean, n 6): 26.6
- Fibrosis gene expression Coll1a1: DDct ([3]; 20 mg/kg, group mean, n 6): 0.24
- Fibrosis gene expression Coll1a1: Dct ([3]; 20 mg/kg, group mean, n 6): 14.4
- Fibrosis gene expression Coll1a1: 2DDct ([3]; 20 mg/kg, individual animals): 0.28 and 0.85 and 0.66 and 1 and 0.61 and 3.91*
- Fibrosis gene expression Coll1a1: Coll1a1 ([3]; 20 mg/kg, individual animals): 28.9 and 26.66 and 26.93 and 27.17 and 26.34 and 23.43
- Fibrosis gene expression Coll1a1: DDct ([3]; 20 mg/kg, individual animals): 1.85 and 0.23 and 0.59 and 0 and 0.71 and −1.97
- Fibrosis gene expression Coll1a1: Dct ([3]; 20 mg/kg, individual animals): 15.99 and 14.37 and 14.73 and 14.14 and 14.85 and 12.17
- O red Oil labeling ([4]; 20 mg/kg group, mean, n 11): 12.1%
- O red Oil labeling ([4]; 20 mg/kg, individual animals): 12.9% and 15.1% and 0.9% and 18.6% and 19.3% and 21.3% and 0.3% and 8.3% and 19.5% and 13.0% and 4.2%
